Assay: in vitro
Conditions: isolated enzyme chymotrypsin, pH 7.8
Method: Ratio enzyme (units):peptide (μmoles) ˜1:33. […] Ratio enzyme (units):peptide (μmoles) ˜1:2.5.
15 μL aliquots (˜15 μg initial peptide) of the peptide-enzyme mixture are periodically withdrawn (t=0, 30 mins, 1 hr, 2 hr, 4 hr, 8 hr, 24 hr) and quenched immediately by addition to an equal volume (15 μL) of 5% TFA (v/v) in 1:1 water/acetonitrile to arrest proteolytic activity. 20 μL aliquots (˜10 μg initial peptide) are analysed by LC/MS and/or analytical RP-HPLC as follows: LC/MS method: Agilent Polaris C8-A column (4.6×100 mm, 3 micron) elutes with a linear binary gradient of 10-90% MeCN (0.1% TFA v/v) in water (0.1% TFA v/v) over 30 mins at 1.5 mL min^−1 at ambient temperature with detection by both UV absorption at 210 nm and ionization using a Waters 3100 mass detector (ESI^+ mode). Peptide fragments deriving from enzymatic hydrolysis are identified by molecular weight, allowing location of the site of cleavage. Analytical RP-HPLC method: Agilent Polaris C8-A column (4.6×100 mm, 3 micron) elutes with a linear binary gradient of 10-90% MeCN (0.1% TFA v/v) in water (0.1% TFA v/v) over either 10 or 15 mins at 1.5 mL min^−1 at 40° C. with detection by UV absorption at 210 nm. Manual integration (AUC) allows estimation of remaining intact peptide over the time course of the experiment.
25 μL aliquots (˜6 μg initial peptide) are analysed by LC/MS and/or analytical RP-HPLC as follows: LC/MS method: Agilent Polaris C8-A column (4.6×100 mm, 3 micron) elutes with a linear binary gradient of 10-90% MeCN (0.1% TFA v/v) in water (0.1% TFA v/v) over 30 mins at 1.5 mL min^−1 at ambient temperature with detection by both UV absorption at 210 nm and ionization using a Waters 3100 mass detector (ESI±mode). Peptide fragments deriving from enzymatic hydrolysis are identified by molecular weight, allowing location of the site of cleavage. Analytical RP-HPLC method: Agilent Polaris C8-A column (4.6×100 mm, 3 micron) elutes with a linear binary gradient of 10-90% MeCN (0.1% TFA v/v) in water (0.1% TFA v/v) over either 10 or 15 mins at 1.5 mL min^−1 at 40° C. with detection by UV absorption at 210 nm. Manual integration (AUC) allows estimation of remaining intact peptide over the time course of the experiment.

CCCCCCCCCCCCCCCC(=O)N[C@@H](CCC(=O)NCCCC[C@H](NC(=O)[C@H](C)NC(=O)[C@H](C)NC(=O)[C@H](CCC(N)=O)NC(=O)CNC(=O)[C@H](CCC(=O)O)NC(=O)[C@H](CC(C)C)NC(=O)[C@H](Cc1ccc(O)cc1)NC(=O)[C@H](CO)NC(=O)[C@H](CO)NC(=O)[C@@H](NC(=O)[C@H](CC(=O)O)NC(=O)[C@H](CO)NC(=O)[C@@H](NC(=O)[C@H](Cc1ccccc1)NC(=O)[C@@H](NC(=O)CNC(=O)[C@H](CCC(=O)O)NC(=O)[C@H](C)NC(=O)[C@@H](N)Cc1cnc[nH]1)[C@@H](C)O)[C@@H](C)O)C(C)C)C(=O)N[C@@H](CCC(=O)O)C(=O)N[C@@H](Cc1ccccc1)C(=O)N[C@H](C(=O)N[C@@H](C)C(=O)N[C@@H](Cc1c[nH]c2ccccc12)C(=O)N[C@@H](CC(C)C)C(=O)N[C@H](C(=O)N[C@@H](CCCNC(=N)N)C(=O)NCC(=O)N[C@@H](CCCNC(=N)N)C(=O)NCC(=O)O)C(C)C)[C@@H](C)CC)C(=O)O [Liraglutide]
remaining at 1 h: 95.6%
